Peptide text beside a SMILES is read from it. * marks the point of attachment. Cbz = O=C(OCc1ccccc1)*
Tests used:
Format in all cases: cell-based
p53 [1] = experiment: p53 accumulation in CPT-treated MCF7 cells (immunoblotting)
Protocol: In a prior research, as p53 is rapidly translocated to mitochondria upon camptothecin (CPT) treatment for its exonuclear function [Mihara et al., Molecular Cell 11, 577-590 (2003)]. We examined whether Hades would be able to weaken the exonuclear function of p53 upon CPT treatment. MCF7 cells were transfected with plasmids (1 μg) expressing GFP or GFP-Hades. At 24 h post-transfection, cells were treated with CPT (1 μM) for 6 h. Accumulation of p53 upon CPT treatment was attenuated by Hades expression (FIG. 5e, upper panel). MCF7 cells were transfected with expression plasmid for GFP or GFP-Hades RING MR. At 24 h after transfection, cells were treated with CPT [5 μM] for 6 h and their nuclear and cytoplasmic fractions were collected to measure the expression level of p53. […] Further, MCF7 cells were transfected with the expression plasmids for GFP or GFP-Hades MR. At 24 h after transfection, cells were treated with 1 μM CPT for 24 h. Cells were harvested, lysed and immunoprecipitated with anti-p53 antibody. […] Hades inhibits the interaction between p53 and Bcl-2 in CPT-treated cells. (FIG. 5f) In order to confirm the effect of Hades on CPT-induced apoptosis, MCF7 cells were transfected with plasmids expressing GFP or GFP-Hades. At 24 h post-transfection, cells were treated with CPT (1 μM) for 24 h.

p53 [2] = experiment: p53 level in Hades-transfected H1299 cells with MG132; conditions: H1299, 10 μM MG132 4 h, FIG. 2e
Protocol: To gain a more detailed insight into the function of Hades in p53 downregulation, we investigated the regulation of p53 stability by Hades. H1299 cells were transfected with each indicated plasmid for 24 h and untreated or treated with 10 μM MG132 for 4 h. The reduced level of p53 by Hades was recovered by treatment of MG132 (FIG. 2e). To generate of stable Hades-knockdown MCF7 cells using the shRNA, the cells were transfected with pSuper-Hades 1 or 2. After selection for 14 days in media containing G418 (500 μg/ml), hades mRNA levels were measured by RT-PCR and the levels of endogenous Hades and p53 proteins were measured by immunoblotting. […] Furthermore, Stable Hades-knockdown MCF7 cells using Hades shRNA were incubated with cycloheximide (CHX, 150 μg/ml). The half-life of p53 protein was greater in pSuper-Hades transfected cells (lower panel) than in control (upper panel) (FIG. 2g).

p53 [3] = experiment: In vivo p53 ubiquitination assay in H1299 cells; conditions: H1299 cotransfected with p53 and GFP-Hades, MG132 10 μM 4 h, FIG. 3e
Protocol: For in vivo p53 ubiquitination assay, HCT116 p53^−/− or H1299 cells were transfected with GFP, GFP-Hades, or GFP-Hades RING MT. At 48 hr after transfection, cells were treated with 10 μM MG132 for 4 hr. The ubiquitinated lysates were analyzed by immunoprecipitation using anti-p53 antibody followed by immunoblotting using anti-Ubiquitin antibody. In vivo p53 ubiquitination analysis, HCT116 p53^−/− or H1299 cells were transformed with GFP, GFP-Hades or GFP-Hades RING MT for 48 hr. After the transformation, cells were incubated for 4 hr using 10 μM MG132. Then, cells were lysed using SDS-containing lysis buffer and heated for […]. […] The anti-p53 immunoprecipitate was analyzed by immunoblotting using anti-polyubiquitin antibody.
Since there are several E2 conjugating enzymes which participate in the ubiquitin-mediated degradation [Smalle et al., Annu Rev Plant Biol. 2004, 555-590 (2004)], we examined which E2 enzyme is responsible for the ubiquitination of p53 by Hades. […] After in vitro ubiquitination, samples were examined SDS-PAGE and detected using autoradiography. […] Moreover, in vitro translated ^35S-labeled p53 was incubated with GST, GST-Hades RP or GST-Mdm2 in the presence of ATP, His-tagged ubiquitin E1 and E2(UbcHSc). p53 ubiquitination was assessed by immunoblotting using anti-p53 antibody. […] The p53 ubiquitination was assessed by immunoblotting using anti-p53 antibody. […]

HCT116 p53+/+ cells = experiment: JC-1 mitochondrial membrane potential, HCT116 p53+/+; conditions: 40 nM siRNA 24 h, then 1 μM CPT 24 h, FIG. 5j
Protocol: For the MTS assay, cells were incubated with CellTiter 96® AQueous Non-Radioactive Cell Proliferation Assay reagent (Promega, USA) for 1 h, and then the O.D. was measured at 490 nm. Apoptosis, DNA content, and mitochondrial membrane potential were determined by flow cytometry using annexin V-PE, propidium iodine, and JC-1 staining, as previous described [Shirangi et al., FASEB J. 16, 420-422 (2002)].
The present inventors investigated the negative role of Hades on p53-dependent apoptosis additionaly using FACS analysis. MCF7 cells were transfected with pSuper or pSuper-Hades, treated with 1 μM CPT for 24 h, and analyzed by FACS to measure the sub-GO fraction. As a result, CPT treatment was higher in Hades knockdown MCF7 cells than in control cells (FIG. 5i). Further, HCT116 p53+/+ and HCT116 p53−/− cells were transfected with 40 nM Hades siRNA or control siRNA. After incubation for 24 h, cells were further treated with 1 μM CPT for 24 h. Cells were harvested and stained with JC-1 for 30 min.

Crm1 = Crm1 (Homo sapiens, UniProt O14980); experiment: p53 level in Hades-transfected H1299 cells with leptomycin B; conditions: H1299 transfected with p53 and GFP-Hades, FIG. 2i
Sequence of Crm1 (O14980 whole entry): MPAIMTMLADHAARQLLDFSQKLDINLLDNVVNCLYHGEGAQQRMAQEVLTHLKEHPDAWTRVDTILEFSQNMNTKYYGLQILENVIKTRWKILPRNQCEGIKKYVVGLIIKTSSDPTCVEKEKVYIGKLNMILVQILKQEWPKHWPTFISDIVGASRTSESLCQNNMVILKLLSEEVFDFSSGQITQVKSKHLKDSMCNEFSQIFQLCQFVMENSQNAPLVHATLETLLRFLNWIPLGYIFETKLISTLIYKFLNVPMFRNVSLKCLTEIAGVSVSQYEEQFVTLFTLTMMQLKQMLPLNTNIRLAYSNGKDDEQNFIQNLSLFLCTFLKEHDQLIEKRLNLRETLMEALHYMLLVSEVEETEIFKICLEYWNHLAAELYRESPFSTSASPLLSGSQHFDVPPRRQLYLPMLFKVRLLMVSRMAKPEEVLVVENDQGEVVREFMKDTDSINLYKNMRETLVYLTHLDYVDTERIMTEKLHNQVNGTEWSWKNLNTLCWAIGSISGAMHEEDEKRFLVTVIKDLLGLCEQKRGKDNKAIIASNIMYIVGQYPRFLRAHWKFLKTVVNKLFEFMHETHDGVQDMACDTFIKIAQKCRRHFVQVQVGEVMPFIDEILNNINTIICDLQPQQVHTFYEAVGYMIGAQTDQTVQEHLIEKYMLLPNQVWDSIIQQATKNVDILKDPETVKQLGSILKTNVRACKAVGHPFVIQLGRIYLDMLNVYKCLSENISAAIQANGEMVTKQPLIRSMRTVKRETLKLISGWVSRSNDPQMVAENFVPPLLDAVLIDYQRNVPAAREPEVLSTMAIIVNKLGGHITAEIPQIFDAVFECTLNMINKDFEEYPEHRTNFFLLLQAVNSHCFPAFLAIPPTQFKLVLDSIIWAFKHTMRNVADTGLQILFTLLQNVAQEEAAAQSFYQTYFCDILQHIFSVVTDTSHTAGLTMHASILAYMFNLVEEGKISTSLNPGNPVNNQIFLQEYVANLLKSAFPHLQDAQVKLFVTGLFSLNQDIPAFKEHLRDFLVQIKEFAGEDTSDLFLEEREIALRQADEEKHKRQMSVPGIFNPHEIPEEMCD
Protocol: Next, we monitored the localization of p53 after the knockdown of Hades. […] The levels of endogenous p53 were measured in fractionated extracts of stable MCF7 cells. […] And also, we used a p53 expression plasmid encoding a mutant p53 (C153Y) that is localized mainly to the cytoplasm but not in the nucleus [Nie et al., J Biol Chem. 282, 14616-14625 (2007)]. We performed immunoblotting assay of ectopically expressed wild-type or mutant p53(C135Y). […] At 24 h after transfection, ectopically expressed wild-type p53 and mutant p53 levels were measured by immunoblotting.

p53 [4] = experiment: Bax-luc / Puma-luc luciferase reporter assay; conditions: H1299, LMB 20 nM 4 h, FIG. 4b
Protocol: Aliquots of 5×10^4 cells were plated in 24-well plates. The following was added to each well: 500 ng of pGL plasmid containing the promoter p53 binding site for Bax or Puma, 100 ng of p53 plasmid, and 200 ng of Hades or Hades MT plasmid. At 48 h after transfection, cells were harvested and cell extracts were prepared by addition of 50 μl Passive lysis buffer (Promega). Luciferase activities were measured using a Biotek synergy HT microplate reader. The relative luciferase activities were normalized by mesuring β-galactosidase activities using Luminescent β-galactosidase detection kit II (Takara-Clontech).
Since E3 ligase activities necessary for p53 ubiquitination can also regulate p53 function [Dornan et al., Nature 429, 86-92 (2004); Leng et al., Cell 112, 779-791 (2003)], we explored the effect of Hades on p53-dependent growth suppression and apoptosis. First, we examined whether Hades affects p53-mediated transcriptional activation using a luciferase reporter assay (FIG. 4a). H1299 cells were cotransfected with expression plasmids for p53 and GFP, GFP-Hades, or GFP-Hades MT, together with Bax-luc or Puma-luc reporter plasmid. At 24 h after transfection, the relative luciferase activities were measured by luminometer. […] At 24 h after transfection, luciperase activation and p53 experssion were measured.

CC[C@@]1(O)C(=O)OCc2c1cc1n(c2=O)Cc2cc3ccccc3nc2-1 [CPT, Camptothecin]
expression level of p53 (p53 [1]; MCF7, 1 μM CPT 24 h, FIG. 5f): accumulation of p53 expression was observed
expression level of p53 in nuclear and cytoplasmic fractions (p53 [1]; MCF7, CPT 5 μM 6 h, FIG. 5e lower panel): accumulated in nucleus and cytoplasm

CC(C)C[C@@H](C=O)NC(=O)[C@H](CC(C)C)NC(=O)[C@H](CC(C)C)NC(=O)OCc1ccccc1 [MG132] (Cbz-Leu-Leu-Leu-aldehyde)
level of p53 reduced by Hades (p53 [2]): recovered
polyubiquitinated p53 (p53 [3]): only detected in Hades-transfected cells treated with MG132

Hades siRNA: siRNAs for Hades from Ambion, GGGAUUUUUAUCUCGAGGC and CGUGUGUGUAGAGGACAAA; antisense SEQ ID NO: 4 and 5 (antisense 1 GCCUCGAGAUAAAAAUCCCTG; antisense 2 UUUGUCCUCUACACACACGTG; sense strands lack entries, further chemistry not given here)
loss of mitochondrial membrane potential (JC-1) (HCT116 p53+/+ cells): only detectable in HCT116 p53+/+ cells

CCC(=C/[C@H](C)C/C=C/C(C)=C/[C@@H](C)C(=O)[C@@H](C)[C@H](O)[C@@H](C)C/C(C)=C/C(=O)O)/C=C/[C@@H]1OC(=O)C=C[C@@H]1C [LMB, Leptomycin B]
level of p53 reduced by Hades (Crm1): restored the level of p53
p53 transcriptional activity (relative luciferase activity) (p53 [4]): not reduced by Hades in the presence of LMB
